Patent publication US20070197432A1, “Peptides for preventing, diagnosing and treating animal and/or human leptospirosis” (priority 2002, published 2007)
No end group written: not given here.

Assays:
[1] = system: Leptospira interrogans sl serovar canicola; experiment: Dogs immunized with PP-KLH, canicola challenge: cultures of plasma, urine and kidney samples; format: in vivo, dog
Procedure: (§1) The animals are given a challenge at a rate of one virulent culture of 4 to 6 days. For an immunized batch and a control batch, each animal received, in each eye, 0.3 ml of the culture having a titer of 120 TU (i.e. 2×10^8 leptospires per ml) and, intraperitoneally, 4 ml of the same culture diluted ten-fold.
(§2) The presence of leptospires was studied jointly by PCR (PCR specific for pathogenic leptospires) and by culturing, in the urine at D0, D10, D14, D18, D25 and D41 and in the kidney samples from each animal at the end of the trial at […].
(§3) Moreover, the bacteriological results were quantified through the setting up of a coefficient: • by immediate culturing. A single live leptospire can give a positive culture. A relative estimation of the bacterial concentration is expressed by means of a coefficient of 3 when a culture has developed in the third serial dilution prepared from the sample. • by PCR on frozen samples. […] A coefficient of 1 was assigned to a PCR with a weak signal and a coefficient of 2 to a strongly positive PCR.

[2] = system: Leptospira interrogans sl serovar canicola; experiment: as above; format: in vivo, dog; remark: listed apart in the source
PP peptide [3] = experiment: Immunization of mice with PP peptide coupled to KLH, anti-PP IgG1/IgG2A ELISA; format: in vivo
Procedure: A batch of 5 mice was formed. Two injections were administered subcutaneously, two weeks apart. The 1st injection consists of 10 μg of PP peptide coupled to KLH, with complete Freund's adjuvant, in a volume of 200 μl (v/v). The 2nd injection consists of 10 μg of PP peptide coupled to KLH, with incomplete Freund's adjuvant, in a volume of 200 μl (v/v). This trial was carried out twice.
In parallel, a batch of 5 mice given nothing is used as a control.
A blood sample was taken two weeks after the second injection for serological monitoring.
The anti-PP antibodies produced in the mice are titered by means of an ELISA technique either on individual serological samples or on pools of several sera. The PP antigen is adsorbed in Immulon 4 plates (Dynatech) at a rate of 500 ng of PP per well diluted in 10 mM sodium carbonate buffer, pH=9.4.
After an overnight period at 4° C., the plates are washed with PBS containing 0.2% tween20, and then saturated with a solution of 1% BSA in TNE (50 mM Tris, 150 mM NaCl, 1 mM EDTA, pH 7.4) for 60 min at 37° C. […] The colored reaction is read in a spectrophotometer at 405 nm.
The results of the anti-PP IgG1 antibody response, expressed as corrected OD, of the immunization trials 1 and 2 with the PP peptide coupled to KLH are given in FIG. 1. […]

[4] = Dogs immunized with PP-KLH, immunization phase (tolerance, weight); format: in vivo, dog
Procedure: An immunization/challenge protocol was carried out in order to evaluate the protection that can be provided by the PP peptide (SEQ ID No. 1) NH2-coupled to the KLH carrier protein (FIG. 14).
(§4) This construct is administered subcutaneously without adjuvant, with PBS as a negative control (batch 2).
Batch 1: 6 SPF dogs, 2 injections of 250 μg of PP-KLH in 1 ml subcutaneously.
Batch 2: 6 SPF dogs, control.
The two injections were administered subcutaneously, […].
The immunization phase was carried out from D-39 to D-1, (D0 being the day of challenge), with the first injection on D-35 and second on D-18.
During this phase, the weight was measured on D-39, D-35, D-28, and D-7 (FIG. 15).

[5] = system: Leptospira interrogans sl serovar canicola; experiment: Dogs immunized with PP-KLH, canicola challenge: PCR on plasma, urine and kidney samples; format: in vivo, dog
Procedure: as §1, §2, §3

[6] = system: Leptospira interrogans sl serovar canicola; experiment: Dogs immunized with PP-KLH, canicola challenge: clinical, hematological and biochemical parameters; format: in vivo, dog; conditions: at D4
PP peptide [7] = experiment: Trial 1: anti-PP IgG ELISA of gerbils immunized with PP-KLH; format: in vivo, gerbil; conditions: three dilutions observed
Procedure: An immunization/challenge protocol was carried out in order to evaluate the protection that can be provided by the PP peptide (SEQ ID No. 1) coupled to the KLH protein.
as §4
Batch 1: 10 gerbils, 2 injections of 30 μg of PP-KLH in 300 μl, subcutaneously.
The two injections in a volume of 300 μl were administered subcutaneously, two weeks apart. A challenge by intraperitoneal injection of 0.5 ml of a canicola culture with a titer of 90 to 100 TU (turbidimetry) diluted to 10^−2.5 was administered two weeks after the second injection. • Antigenic response: Monitoring by ELISA of the immune response of the gerbils against the PP peptide
The anti-PP antibodies were titered in the gerbil by means of an ELISA technique (described above) with a biotinylated anti-gerbil antiglobulin (BioAtlantic) at 1/3000 and, as visualizing agent, peroxidase-coupled streptavidin (RPN1231, Amersham pharmacia biotech).
For each batch of gerbils, the sera were combined with respect to the various sample dates D0 (before the first immunization), D14 (before the second immunization) and D28 (before the challenge).
The results of the IgG antibody response against the PP peptide, expressed as corrected OD (OD of the treated sera corrected with respect to the OD of the control sera), are given in FIG. 11.

## PP-KLH: PP peptide with cysteine added at the N-terminal position, coupled via sulfo-MBS to KLH carrier protein (keyhole limpet hemocyanin) (KAKPVQKLDDDDDGDDTYKEERHNK; not fully specified (N-terminus))
[1]; Plasma, D0
  positive cultures/dogs: 0/6
[1]; Plasma, D3
  positive cultures/dogs: 6/6
[1]; Plasma, D7
  positive cultures/dogs: 0/6
[1]; Urine, D14
  positive cultures/dogs: 2/6
[1]; Urine, D18
  positive cultures/dogs: 3/6
[1]; Urine, D25
  positive cultures/dogs: 4/6
[1]; detected both by culturing and by PCR, both groups
  renal carrier status at the time of euthanasia: renal carriers
[1]; immunized versus control dogs, cultures and PCRs
  excretion of leptospires in the urine: becomes apparent later, or at a lower level
[2]; Kidneys, D41
  positive cultures/dogs: 5/6
[2]; Urine, D7
  positive cultures/dogs: 3/6
PP peptide [3]
  immunogenicity: very immunogenic
PP peptide [3]; 2 s.c. injections of 10 μg with Freund's adjuvant
  anti-PP IgG2A antibody response: high but less substantial than the anti-PP IgG1 response
[4]; SPF dogs, 2 s.c. injections of 250 μg without adjuvant
  tolerance in immunization phase: complete tolerance
[4]; between D-35 and D-7
  p, evolution of mean increase in weights, control versus immunized dogs (not significantly different): 0.8509
[5]; Kidneys, D41
  positive PCR/dogs: 1/6
[5]; Plasma, D0
  positive PCR/dogs: 0/6
[5]; Plasma, D3
  positive PCR/dogs: 6/6
[5]; Plasma, D7
  positive PCR/dogs: 0/6
[5]; Urine, D14
  positive PCR/dogs: 2/6
[5]; Urine, D18
  positive PCR/dogs: 1/6
[5]; Urine, D25
  positive PCR/dogs: 3/6
[5]; Urine, D41
  positive PCR/dogs: 4/6
[6]
  p, monocyte depletion observed only in the controls: 0.05
  p, transient leukopenia greater in control than in immunized dogs: < 0.05
[6]; significant in the controls
  lymphopenia: not noted at all
PP peptide [7]
  boost effect of second injection: corrected OD at D28 relative to D14: more than double
